pEC50, pIC50: −log10 of the molar value. Active and inactive are the calls of the source. The calls are words filed in the database; no cut-off is given here.
Columns and labels:
oncovirus = assay: Compound was evaluated for the antiviral activity against model oncovirus SV 40; A - Marginal activity was found; type: functional
[1] = system: Human immunodeficiency virus 1; assay: Effective concentration against HIV-1 was determined; type: functional, organism-based
[2] = system: Human immunodeficiency virus 1; assay: Inhibitory concentration against HIV-1 was determined; type: functional, organism-based
[3] = system: Human immunodeficiency virus 1; assay: Compound was evaluated for the inhibitory activity against HIV-1; IA - Inactive; type: functional, organism-based

Compound	Activity (oncovirus)	pEC50 [1]	pIC50 [2]	Activity [3]
Cc1cn(C2CC(N(C)O)C(CO)O2)c(=O)[nH]c1=O (stereo unspecified)	A			
Cc1cn(C2CC3C(COCN3O)O2)c(=O)[nH]c1=O (stereo unspecified)		5.60	< 3.68	
Cc1cn(C2CC(N(O)Cc3ccccc3)C(CO)O2)c(=O)[nH]c1=O (stereo unspecified)	A			inactive
Cc1cn([C@H]2C[C@](C#N)(N(C)O)[C@@H](CO[Si](C)(C)C(C)(C)C)O2)c(=O)[nH]c1=O	A			

Reference: ChEMBL document CHEMBL1126389, “Synthesis and anti-HIV activity of 3-deoxy-3-(N-hydroxyamino) analogues of nucleosides” (Bioorg Med Chem Lett, 1992)
